According to PubChem BioAssay (NCI):
“And” between values parts separate entries of the source, which are not always exact repeats. Equal values may be shown once.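 Method: 48-hour compound exposure of cells in 96-well plates, five concentrations, linear interpolation of endpoints. GI50 marks 50% less growth. TGI marks complete inhibition of growth.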

Experiments:
Test in all cases: DTP human tumour cell line panel, 48 h
HOP-92 NSCLC = tested on: HOP-92 NSCLC
A498 renal = tested on: A498 renal
DU-145 prostate = tested on: DU-145 prostate
UO-31 renal = tested on: UO-31 renal
K-562 leukemia = tested on: K-562 leukemia
SR leukemia = tested on: SR leukemia
SK-MEL-2 melanoma = tested on: SK-MEL-2 melanoma
MOLT-4 leukemia = tested on: MOLT-4 leukemia
LOX IMVI melanoma = tested on: LOX IMVI melanoma
NCI-H460 lung = tested on: NCI-H460 lung

SMILES	GI50 (HOP-92 NSCLC)	TGI (HOP-92 NSCLC)	GI50 (A498 renal)	TGI (A498 renal)	GI50 (DU-145 prostate)	TGI (DU-145 prostate)	GI50 (UO-31 renal)	TGI (UO-31 renal)	GI50 (K-562 leukemia)	TGI (K-562 leukemia)	GI50 (SR leukemia)	TGI (SR leukemia)	GI50 (SK-MEL-2 melanoma)	GI50 (MOLT-4 leukemia)	TGI (MOLT-4 leukemia)	GI50 (LOX IMVI melanoma)	TGI (LOX IMVI melanoma)	GI50 (NCI-H460 lung)	TGI (NCI-H460 lung)	TGI (SK-MEL-2 melanoma)
CCc1c2c(nc3ccc(OCc4ccc(B(O)O)cc4)cc13)-c1cc3c(c(=O)n1C2)COC(=O)[C@]3(O)CC	0.0366 µM	4.36 µM	0.0128 µM	0.21 µM	< 0.0158 µM	6.05 µM	0.031 µM	0.913 µM	0.0792 µM	> 100 µM	< 0.01 µM	> 100 µM	0.63 µM	0.0101 µM	> 100 µM	< 0.01 µM	0.15 µM	< 0.0134 µM	1.39 µM	–
Cc1c2cnccc2c(C)c2c1c1cc(C#N)ccc1n2C	0.18 µM	0.708 µM	0.11 µM	0.285 µM	0.208 µM	0.836 µM	0.137 µM	0.869 µM	0.247 µM	1.33 µM	0.0588 µM	3.06 µM	0.256 µM	0.0959 µM	1.68 µM	0.115 µM	0.615 µM	0.124 µM	0.427 µM	0.771 µM
COc1ccc(-c2noc(C(=O)O)c2-c2cc(OC)c(OC)c(OC)c2)cc1	3.54 µM	> 100 µM	1.43 µM	7.02 µM	3.48 µM	> 100 µM	5.45 µM	> 100 µM	0.609 µM	> 100 µM	0.402 µM	> 100 µM	5.9 µM	4.91 µM	> 100 µM	5.12 µM	> 100 µM	2.52 µM	> 100 µM	> 100 µM
O=S(=O)(Nc1ccc(Br)cc1)c1ccc(-c2cnc(C3CC3)o2)cc1	3.39 µM	18.6 µM	0.31 µM	2.63 µM	3.8 µM	17.4 µM	2.41 µM	15.7 µM	0.41 µM	> 100 µM	0.349 µM	16.5 µM	4.2 µM	2.16 µM	24.2 µM	2.41 µM	18 µM	2.2 µM	10.2 µM	20.3 µM
FC(F)(F)c1cccc(-c2nc3nc(Cl)c(Cl)nc3[nH]2)c1	–	9.79 µM	–	6.12 µM	–	> 100 µM	–	3.88 µM	–	17 µM	–	12.2 µM	–	–	10.4 µM	–	13.1 µM	–	> 30.3 µM	6.02 µM
CCN1C(=O)N(CC)C2C1NN=c1s/c(=C\c3ccc(Cl)cc3Cl)c(=O)n12 (stereo not given)	0.275 µM	64 µM	0.0194 µM	0.0667 µM	0.0332 µM	1.38 µM	0.167 µM	60.4 µM	0.0309 µM	28 µM	0.0319 µM	> 24.8 µM	0.0592 µM	0.0421 µM	> 64.5 µM	0.0329 µM	> 35.1 µM	0.0347 µM	15.8 µM	> 60 µM
O=C(c1ccc2ccccc2c1)c1c(C(F)(F)F)n([O-])c2ccc(C(F)(F)F)cc2[n+]1=O	0.899 µM	2.28 µM	0.757 µM	1.97 µM	0.738 µM	2 µM	0.434 µM	0.874 µM	0.608 µM	1.14 µM	0.174 µM	0.478 µM	1.96 µM	0.441 µM	1.62 µM	0.191 µM	0.363 µM	1.8 µM	3.69 µM	3.77 µM
N#CC(C#N)=C/C=C(\Cl)c1ccc(Cl)cc1	3.81 µM	11.4 µM	20.5 µM	38.6 µM	11.6 µM	29.7 µM	14.4 µM	44.9 µM	0.7 µM	–	3.31 µM	37.3 µM	17.7 µM	0.696 µM	> 100 µM	1.18 µM	–	25.1 µM	> 100 µM	> 100 µM
CC1CC(C)CC(C)C(O)/C(C#N)=C/C=C/CC(C2CCCC2C(=O)O)OC(=O)CC(O)C(C)C1 (stereo not given)	–	0.0513 µM and 0.0143 µM	0.0152 µM	0.0482 µM and 0.0186 µM	0.132 µM	0.659 µM and 0.896 µM	0.027 µM	0.15 µM and 0.0217 µM	0.0263 µM and < 0.0121 µM	0.066 µM and 0.256 µM	0.0176 µM	0.0736 µM and 0.0813 µM	0.00139 µM	0.0269 µM	0.0641 µM and 0.209 µM	0.0162 µM	0.0479 µM and 0.0213 µM	0.0518 µM	0.371 µM	0.00545 µM
c1ccc(-c2nc(-c3ccccn3)nc(-c3ccccn3)n2)nc1	8.99 µM	92 µM	86.9 µM	> 100 µM	48.9 µM	> 100 µM	3.18 µM	> 100 µM	19.4 µM	> 100 µM	37.9 µM	> 100 µM	63.3 µM	21.2 µM	> 100 µM	33.5 µM	> 100 µM	12.1 µM	> 100 µM	> 100 µM
COc1ccc(C2=Nn3c(nnc3-c3cc(Cl)cc(Cl)c3Cl)SC2)cc1	> 33.9 µM	> 100 µM	0.583 µM	> 100 µM	0.355 µM	4.42 µM	0.379 µM	29.2 µM	0.44 µM	> 31.6 µM	0.826 µM	–	1.21 µM	1.49 µM	> 100 µM	0.568 µM	> 100 µM	0.502 µM	> 100 µM	> 55.7 µM
CC1=C([Se]CC(OC(=O)CC[Se]c2ccccc2)C(=O)NC(C)(C)C)C(=O)c2ccccc2C1=O (stereo not given)	1.55 µM	2.92 µM	2.82 µM	6.42 µM	1.97 µM	3.6 µM	1.17 µM	2.43 µM	0.729 µM	3.08 µM	0.938 µM	3.37 µM	2 µM	0.545 µM	3.44 µM	1.94 µM	4.7 µM	0.426 µM	2.02 µM	3.7 µM
